{"source": "patent US4593019A", "about": "“N^6 -tricyclic adenosines” (Warner-Lambert Company, priority 1984, dated 1986)", "key": {"A1 receptor": {"biological_target": "T1, A1 receptor (Rattus norvegicus, UniProt P25099)", "T1 construct": "Whole brain minus cerebellum and brainstem from male Long Evans rats; from tissue; host or cells: rat whole brain minus cerebellum and brainstem (membranes)", "T1 sequence (P25099 1-326)": "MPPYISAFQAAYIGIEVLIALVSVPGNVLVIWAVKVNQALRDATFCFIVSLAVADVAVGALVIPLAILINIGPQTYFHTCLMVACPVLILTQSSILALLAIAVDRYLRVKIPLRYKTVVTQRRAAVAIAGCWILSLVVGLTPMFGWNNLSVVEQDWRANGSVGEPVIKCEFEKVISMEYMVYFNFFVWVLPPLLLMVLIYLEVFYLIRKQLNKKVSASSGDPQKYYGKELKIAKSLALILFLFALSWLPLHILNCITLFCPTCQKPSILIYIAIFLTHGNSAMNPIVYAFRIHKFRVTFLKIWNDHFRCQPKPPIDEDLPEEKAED", "assay": "Adenosine Receptor Binding - A1 Receptor Affinity (RBA1), [3H]-CHA displacement", "settings": "1.0 nM [3H]-CHA, rat brain membranes, pH 7.7, 25° C., 1 h; read-out: RBA-1 IC50 (adenosine A1 receptor affinity)", "experimental": "The supernatant was discarded, and the pellet was resuspended and centrifuged as before. […] Incubation volume was 2 ml. […] The radio-labeled ligand retained on the filter was measured by liquid scintillation spectrophotometry after shaking the filters for one hour or longer on a mechanical shaker in 10 ml of Beckman Ready-Solv HP scintillation cocktail. […] The maximal number of binding sites (Bmax) was calculated from the Scatchard plot."}, "A2 receptor": {"biological_target": "T2, A2 receptor (Rattus norvegicus, UniProt P30543)", "T2 construct": "5 mg original tissue weight of rat weight of rat striatal membranes; tissue Pel-Freez (Rogers, Ark.); host or cells: rat striatum (membranes)", "T2 sequence (P30543 whole entry)": "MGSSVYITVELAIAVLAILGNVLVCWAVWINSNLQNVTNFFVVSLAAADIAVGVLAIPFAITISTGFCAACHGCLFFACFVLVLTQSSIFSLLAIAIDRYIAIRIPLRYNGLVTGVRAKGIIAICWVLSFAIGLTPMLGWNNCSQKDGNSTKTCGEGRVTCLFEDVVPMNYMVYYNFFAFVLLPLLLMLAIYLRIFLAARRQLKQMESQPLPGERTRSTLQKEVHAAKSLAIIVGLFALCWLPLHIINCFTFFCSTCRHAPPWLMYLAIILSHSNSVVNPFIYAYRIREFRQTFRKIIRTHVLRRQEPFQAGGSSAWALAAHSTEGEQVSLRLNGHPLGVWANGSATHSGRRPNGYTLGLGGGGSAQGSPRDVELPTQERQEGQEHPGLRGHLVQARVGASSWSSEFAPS", "assay": "Adenosine Receptor Binding - A2 Receptor Affinity (RBA2), [3H]NECA displacement", "settings": "4 nM [3H]NECA, 50 nM N6-cyclopentyladenosine, rat striatal membranes, 25° C., 60 min; read-out: RBA-2 IC50 (adenosine A2 receptor affinity)", "experimental": "Adenosine Receptor Binding--A2 Receptor Affinity (RBA2)\nBrains from 200-500 g mixed sex Sprague-Dawley rats were purchased from Pel-Freez (Rogers, Ark.). […] Brains were thawed and then kept on ice while the striata were dissected out. […] The suspension was centrifuged at 50,000 xg for ten minutes, the supernatant discarded, the pellet resuspended in 10 vol ice-cold Tris as above, recentrifuged, resuspended at 1 g/5 ml, and stored in plastic vials at -70° C. […] When needed, tissue was thawed at room temperature, disrupted in a Polytron, and kept on ice until used. […]\nNonspecific binding was defined as binding in the presence of 100 μM N^6 -cyclopentyladenosine, and specific binding was defined as total binding minus nonspecific binding. The IC50 was calculated by weighted nonlinear least squares curve-fitting to the mass-action equation. […]\nWeighting factors were calculated under the assumption that the standard deviation was proportional to the predicted value of Y. Nonspecific binding was treated as a very large (infinite) concentration of drug in the computer analysis."}, "mice": {"test_system": "mice", "assay": "Mouse Activity and Screen Test Procedure (MAST): screen test failure", "type": "in vivo, mouse (male Swiss-Webster)", "settings": "one hour postinjection", "description": "The compounds of the invention are new chemical substances which are useful as pharmaceutical agents for the treatment of psychoses. The antipsychotic activity of representative compounds of the invention was established by the Mouse Activity and Screen Test Procedure (MAST) described below.\n(§1) Nine unfasted Swiss-Webster male mice weighing 20-30 g are equally divided into three groups for each drug dose to be tested. That is, data for each dose level was generated by three separate groups of three mice each.\n(§2) A minimum of three dose levels (10, 30, and 100 mg/kg) are tested for each drug. Treatments are administered intraperitoneally one hour prior to testing. All dosages are calculated as parent compound and given in volumes of 10 ml/kg. Compounds are dissolved or suspended in 0.2% Methocel. Control animals are injected with Methocel.\nA two part testing procedure is started one hour postinjection. First, the screen test (ST) is performed (see Pharmac. Biochem. Behav. 6, 351-353, 1977). Briefly this test consists of placing mice on individual wire screens which are then rotated 180 degrees at the start of a 60 second observation period. The number of mice falling off the inverted screen is recorded.\nThe data obtained from the screen test are expressed as percent of mice falling off the screen. Data derived from locomotor activity of drug treated mice are compared to the activity of vehicle treated animals and are expressed as percent inhibition of spontaneous locomotion. All percentages reported for inhibition of locomotion (LI) are based upon data accumulated for one hour. Both phases of testing are graded: A=60-100%; C=31-59%; and N=0-30%. An overall dose rating is obtained by the following criteria: […]"}, "[1]": {"assay": "Mouse Activity and Screen Test Procedure (MAST): inhibition of spontaneous locomotion", "type": "in vivo, mouse (male Swiss-Webster)", "settings": "one hour prior to testing, accumulated over one hour", "experimental": "as §1, §2\nA two part testing procedure is started one hour postinjection. […] Briefly this test consists of placing mice on individual wire screens which are then rotated 180 degrees at the start of a 60 second observation period. The number of mice falling off the inverted screen is recorded.\nThe actophotometer consists of a cylindrical chamber whose center is occupied by another cylinder which contains the illumination for six photocells located on the perimeter of the chamber. Six light-beam interruptions equal one count. Locomotor activity is recorded by computer at ten minute intervals for 60 minutes.\nThe data obtained from the screen test are expressed as percent of mice falling off the screen. Data derived from locomotor activity of drug treated mice are compared to the activity of vehicle treated animals and are expressed as percent inhibition of spontaneous locomotion. All percentages reported for inhibition of locomotion (LI) are based upon data accumulated for one hour. […] An overall dose rating is obtained by the following criteria:\nLAD refers to the lowest dose at which an A rating is achieved. […] The compounds are identified in the examples."}, "[2]": {"assay": "Antihypertensive evaluation (AHP3): direct monitoring of aortic blood pressure and heart rate in conscious rats", "type": "in vivo", "settings": "10 mg/kg, conscious rat", "experimental": "This test procedure is described in the following paragraphs.\nThe continuous monitoring of pulsatile blood pressure (BP) from unrestrained conscious rats surgically equipped with polyethylene cannulas was accomplished by means of a computer assisted data capture scheme (CADCS). The basic elements of the methodology are the cannulation procedure and the CADCS.\nCannulation Procedure: Rats were anesthetized with Telazol (1:1 tiletamine HCl and zolazepam HCl); 20-40 mg/kg IM and the descending aorta exposed via a midline incision. Cannulas fabricated from polyethylene tubing were inserted into the aorta via an undersized puncture hole below the renal arteries. The puncture hole was made by a 23 G disposable needle with a section of the aorta clamped off above and below the puncture site. The cannulas, consisting of a PE100 (0.86 mm ID) body and a PE50 (0.58 mm ID) tip, were attached to a trocar, inserted through the psoas muscle, and passed subcutaneously along the midline of the back and externalized between the ears. The cannulas were anchored to the psoas muscle and between the scalulae (3-0 green braided suture). The midline incision was closed in two steps (muscle first, skin second) using continuous over-and over sutures (4-0 chronic). Each rat was then given penicillin 30,000 units subcutaneously (Penicillin G Procaine Sterile Suspension).\nThe rats were fitted with a harness-spring-swivel assembly designed to protect the cannula and to provide the rat relative freedom of movement. The harnesses were fabricated from nylon hook and loop tape cemented to a metal plate to which spring wires (18-8 stainless steel), were attached to brass swivels. […] While on test, each rat received a continuous slow infusion of heparinized saline solution (approximately […] or 40 units of heparin per 24 hour period) to prevent clot formation. Additional \"flushes\" of the cannula with heparinized saline were carried out when the aortic pulse pressure (systolic minus diastolic) was less than 25 mm Hg.\nCADCS: The pulsatile blood pressure and heart rate of each of 32 rats was monitored every minute by means of two in-laboratory microcomputers communicating directly with a data concentrator computer. The data were first stored on the data concentrator disk and then transferred to a magnetic tape for analysis and report generation by the main research computer. The overall scheme involved modulating the primary signal from the pressure transducer, generating the primary data set of the one-minute values for systolic, diastolic, and mean blood pressures and heart rate by the in-lab microcomputer and the storage, analysis, and report generation by the main reserach computer.\nThe transducers were connected to analog signal conditioning modules. The modules provided a regulated excitation voltage for the transducers, amplification as required to interface the microprocessors and an active low pass filter to compensate for the pressure wave form distortion produced by the flexible, fluid filled, narrow cannula.\nThe microcomputers (one for each of two groups of 16 rats) were connected to the input components through the module interface units, an analog-to-digital converter for the pressure wave form signal and the digital inputs for the dose and event marker switches. The microcomputer controlled the sequential acquisition of data from the modular interface units through an internal synchronous time-of-day clock/time base generator. Utilizing the time base generator as a reference, the blood pressure values and the marker switch status for each of the 32 stations were sampled every ten msec. The microcomputer processed each blood pressure sample as it was received to produce \"running average\" values for heart rate, and mean, systolic and diastolic blood pressures."}}, "data": [{"smiles": "OC[C@H]1O[C@@H](n2cnc3c(NCCC4c5ccccc5-c5ccccc54)ncnc32)[C@H](O)[C@@H]1O", "note": "[Example 3, N^6 -Fluorenylethyl adenosine]", "values": [{"measurement": "IC50", "setting": "A1 receptor", "result": 0.435, "unit": "µM"}]}, {"smiles": "OC[C@H]1O[C@@H](n2cnc3c(NC4c5ccccc5-c5ccccc54)ncnc32)[C@H](O)[C@@H]1O", "note": "[Example 1]", "values": [{"measurement": "IC50", "setting": "A2 receptor", "result": 51, "unit": "µM"}, {"measurement": "Screen Test Failure (percent of mice falling off the screen)", "setting": "mice; 10 mg/kg i.p.", "result": 0, "unit": "%"}, {"measurement": "Screen Test Failure (percent of mice falling off the screen)", "setting": "mice; 30 mg/kg i.p.", "result": 0, "unit": "%"}, {"measurement": "Screen Test Failure (percent of mice falling off the screen)", "setting": "mice; 100 mg/kg i.p.", "result": 0, "unit": "%"}, {"measurement": "IC50", "setting": "A1 receptor", "result": 8.6, "unit": "µM"}, {"measurement": "Inhibition of Mouse Locomotion Activity", "setting": "[1]; 10 mg/kg i.p.", "result": 41, "unit": "%"}, {"measurement": "Inhibition of Mouse Locomotion Activity", "setting": "[1]; 30 mg/kg i.p.", "result": 60, "unit": "%"}, {"measurement": "Inhibition of Mouse Locomotion Activity", "setting": "[1]; 100 mg/kg i.p.", "result": 68, "unit": "%"}]}, {"smiles": "OC[C@H]1O[C@@H](n2cnc3c(NCC4c5ccccc5-c5ccccc54)ncnc32)[C@H](O)[C@@H]1O", "note": "[Example 2]", "values": [{"measurement": "HR ↑ (increase in heart rate)", "setting": "[2]; 1 hour", "result": 24, "unit": "%"}, {"measurement": "MAP ↓ (decrease in mean arterial blood pressure)", "setting": "[2]; 1 hour", "result": 32, "unit": "%"}, {"measurement": "HR ↑ (increase in heart rate)", "setting": "[2]; 3 hours", "result": 27, "unit": "%"}, {"measurement": "MAP ↓ (decrease in mean arterial blood pressure)", "setting": "[2]; 3 hours", "result": 32, "unit": "%"}, {"measurement": "HR ↑ (increase in heart rate)", "setting": "[2]; 5 hours", "result": 20, "unit": "%"}, {"measurement": "MAP ↓ (decrease in mean arterial blood pressure)", "setting": "[2]; 5 hours", "result": 34, "unit": "%"}, {"measurement": "HR ↑ (increase in heart rate)", "setting": "[2]; 7 hours", "result": 13, "unit": "%"}, {"measurement": "MAP ↓ (decrease in mean arterial blood pressure)", "setting": "[2]; 7 hours", "result": 28, "unit": "%"}, {"measurement": "HR ↑ (increase in heart rate)", "setting": "[2]; 9 hours", "result": 13, "unit": "%"}, {"measurement": "MAP ↓ (decrease in mean arterial blood pressure)", "setting": "[2]; 9 hours", "result": 30, "unit": "%"}, {"measurement": "Screen Test Failure (percent of mice falling off the screen)", "setting": "mice; 1 mg/kg i.p.", "result": 11, "unit": "%"}, {"measurement": "Screen Test Failure (percent of mice falling off the screen)", "setting": "mice; 3 mg/kg i.p.", "result": 33, "unit": "%"}, {"measurement": "Screen Test Failure (percent of mice falling off the screen)", "setting": "mice; 10 mg/kg i.p.", "result": 44, "unit": "%"}, {"measurement": "Screen Test Failure (percent of mice falling off the screen)", "setting": "mice; 30 mg/kg i.p.", "result": 55, "unit": "%"}, {"measurement": "Screen Test Failure (percent of mice falling off the screen)", "setting": "mice; 100 mg/kg i.p.", "result": 55, "unit": "%"}, {"measurement": "Inhibition of Mouse Locomotion Activity", "setting": "[1]; 1 mg/kg i.p.", "result": 56, "unit": "%"}, {"measurement": "Inhibition of Mouse Locomotion Activity", "setting": "[1]; 3 mg/kg i.p.", "result": 94, "unit": "%"}, {"measurement": "Inhibition of Mouse Locomotion Activity", "setting": "[1]; 10 mg/kg i.p.", "result": 97, "unit": "%"}, {"measurement": "Inhibition of Mouse Locomotion Activity", "setting": "[1]; 30 mg/kg i.p.", "result": 97, "unit": "%"}, {"measurement": "Inhibition of Mouse Locomotion Activity", "setting": "[1]; 100 mg/kg i.p.", "result": 91, "unit": "%"}]}]}
